Where two headings read alike, the source gives them in different places.

Common to all, as to format: physicochemical
The nature of data set [1]: solubility of the compound of formula (I) in media and formulations.
Data set [2] in a line: chemical stability of formulations: impurity content by HPLC over time. As to conditions: versus PS80 and PS80/ethanol formulations; especially 25° C./60% RH and 30° C./65% RH. The method, then: A study of chemical stability by measuring the impurity content by high performance liquid chromatography (HPLC) was carried out on the formulations making it possible to achieve the target solubility.

Data set [3] in a line: physical stability of the perfusion solution (no visible precipitation). The settings on record: perfusion solution from compound of formula (I) in PEG alone.

As for `CC(C)(C)NC(=O)Nc1nc2nc(Nc3ccc4nsnc4c3)ncc2cc1-c1c(Cl)cccc1Cl` [compound of formula (I)], the solubility in data set [1] (medium: PEG 400) is 9.5 mg/g; in data set [1] (medium: ethanol), 3.8 mg/g; in data set [1] (medium: propylene glycol), 1 mg/g; in data set [1] (medium: tert-butanol), 1.2 mg/g; in data set [1] (medium: water), below 0.006 mg/g; in data set [1] (organic solvent or mixture, dilution in PEG alone, read-out: solubility), at most 7000 µg/mL. For the same compound, the “chemical stability compared between formulations” value in data set [2] is listed as “degrades less rapidly”. For the same compound, the “physical stability of the perfusion solution” value in data set [3] is given as below 24 h.

The values are drawn from patent publication US20120202831A1, “Pharmaceutical Formulation” (SANOFI, priority 2009, published 2012).
